Source: article PMC9611370 (Viruses, 2022)
Where two headings read alike, the source gives them in different places.

Legend:
[1] = tested on: PHA-stimulated human PBMCs; assay: Cytotoxicity assay (MTT) in uninfected PBMCs; assay type: cell-based
HIV-1NL4-3 = assay: In vitro antiviral assay (p24 ELISA) in PHA-stimulated human PBMCs; settings: for IC50: read-out: NL4-3 Antiviral (PBMC) IC50; for IC90: read-out: NL4-3 Antiviral (PBMC) IC90
[2] = Human immunodeficiency virus 1, NL43, PBMC, in Homo sapiens, 168 h
[3] = PHA-stimulated human PBMCs, 7 days, p24 ELISA

IC50 (HIV-1NL4-3; [2])	IC90 (HIV-1NL4-3; [2])	SMILES	cytotoxicity better than NBD-14189 ([1]; PBMC, compared with NBD-14189)	CC50 ([1]; uninfected PBMCs, MTT, day 7, read-out: PBMC Toxicity CC50)	CC90 ([1]; uninfected PBMCs, MTT, day 7, read-out: PBMC Toxicity CC90)	SI CC50/IC50 (HIV-1NL4-3; PBMC CC50 / NL4-3 IC50)	IC50 (HIV-1NL4-3; [3])	IC90 (HIV-1NL4-3; [3])
280 nM	> 10000 nM	COc1cnc(-n2cnc(C)n2)c2[nH]cc(C(=O)C(=O)N3CCN(C(=O)c4ccccc4)CC3)c12 [BMS-626529]	about 3 fold	–	–	–	–	–
–	–	C#C[C@]1(CO)O[C@@H](n2cnc3c(N)nc(F)nc32)C[C@@H]1O [EFdA]	–	23000 nM	> 100000 nM	13,000	1.7 nM	> 66 nM
